The values that follow come from patent publication US20050112204A1, “Pharmaceutical formulations” (priority 2003, published 2005).

Holding throughout (format): physicochemical
Series [1] is described as follows: aqueous solubility of voriconazole (previously measured data). As to conditions: water, aqueous buffer; pH 7; 22° C.
The nature of series [2]: stability of voriconazole in water. As to conditions: an inactive enantiomer is formed from recombination of the retro-aldol products of hydrolysis.
Series [3] in a line: visual solubility of voriconazole in water and aqueous poloxamer F127 solutions (Example 2). The note with it: for visual solubility in water: ambient conditions; for solubility: aqueous poloxamer F127 solution, aqueous with cosolvent or surfactant or cyclodextrin, thermodynamic from solid, read-out: soluble up to. The protocol:
Voriconazole aqueous solutions of 0.5 and 1 mg/ml were prepared in water (20 ml). Corresponding aqueous solutions of 2, 3 and 4 mg/ml were prepared in aqueous poloxamer solutions (20 ml), as follows: The samples were prepared in 50 ml glass vials, and sonicated in an ultrasonic bath for 30 minutes. The solutions were allowed to cool, then visually assessed immediately and after 18 hours. The solubilization factor on the y-axis is a code for the level of solubility visually observed.

Molecules are shown by their SMILES. ≈ marks a conversion by molar mass, not a printed value. Where only a bound is given, the exact number is not on record here.

In the case of `C[C@@H](c1ncncc1F)[C@](O)(Cn1cncn1)c1ccc(F)cc1F` [voriconazole, (2R,3S)-2-(2,4-Difluorophenyl)-3-(5-fluoro-4-pyrimidinyl)-1-(1H-1,2,4-triazol-1-yl)-butan-2-ol], the solubility in series [1] was 610 µg/mL (≈ 1.75 mM); in series [3] (in 10% F127 solution), not above 2000 µg/mL; in series [3] (in 15% F127 solution), not above 3000 µg/mL. The stability in water result in series [2] was “not stable in water”. The “visual solubility in water” value in series [3] (0.5 mg/ml in water) is given as “virtually complete solubility”; in series [3] (1 mg/ml in water), “clearly insoluble”. Further, the “increase in solubility in comparison with water alone” value was “three to four fold” in series [3] (10% F127 solution) and “five to six fold” in series [3] (15% F127 solution).
